Measurements as given in paper PMC12013614 (RSC Advances, 2025).
Marks after values point to notes of the source that are not given here.

How the values were obtained:
MDA-MB-231 cells [1] = test: Apoptosis analysis, Annexin V-FITC/PI flow cytometry; type: cell-based
caspase-8 = test: qRT-PCR gene expression, caspase-8; type: cell-based; settings: MDA-231 cells; 21.68 μM; control set to 1; mean ± SEM
BAX = test: qRT-PCR gene expression, BAX; type: cell-based; settings: MDA-231 cells; 21.68 μM; control set to 1; mean ± SEM
BAX/Bcl-2 ratio = type: cell-based; settings: MDA-231 cells; 21.68 μM; control set to 1
VEGFR-2 = VEGFR-2 (Homo sapiens, UniProt P35968); test: In vitro VEGFR-2 kinase inhibition; type: biochemical
caspase-9 = test: qRT-PCR gene expression, caspase-9; type: cell-based; settings: MDA-231 cells; 21.68 μM; control set to 1; mean ± SEM
MDA-231 cells = test: Cell migration and wound healing assay; type: cell-based; settings: 11 μM (0.5 IC50), untreated control 58.95
Bcl-2 = test: qRT-PCR gene expression, Bcl-2; type: cell-based; settings: MDA-231 cells; 21.68 μM; control set to 1; mean ± SEM
MDA-MB-231 cells [2] = test: Cell cycle analysis, PI flow cytometry; type: cell-based; settings: 21.68 µM, 48 h

Chain of VEGFR-2 (P35968 20-1356): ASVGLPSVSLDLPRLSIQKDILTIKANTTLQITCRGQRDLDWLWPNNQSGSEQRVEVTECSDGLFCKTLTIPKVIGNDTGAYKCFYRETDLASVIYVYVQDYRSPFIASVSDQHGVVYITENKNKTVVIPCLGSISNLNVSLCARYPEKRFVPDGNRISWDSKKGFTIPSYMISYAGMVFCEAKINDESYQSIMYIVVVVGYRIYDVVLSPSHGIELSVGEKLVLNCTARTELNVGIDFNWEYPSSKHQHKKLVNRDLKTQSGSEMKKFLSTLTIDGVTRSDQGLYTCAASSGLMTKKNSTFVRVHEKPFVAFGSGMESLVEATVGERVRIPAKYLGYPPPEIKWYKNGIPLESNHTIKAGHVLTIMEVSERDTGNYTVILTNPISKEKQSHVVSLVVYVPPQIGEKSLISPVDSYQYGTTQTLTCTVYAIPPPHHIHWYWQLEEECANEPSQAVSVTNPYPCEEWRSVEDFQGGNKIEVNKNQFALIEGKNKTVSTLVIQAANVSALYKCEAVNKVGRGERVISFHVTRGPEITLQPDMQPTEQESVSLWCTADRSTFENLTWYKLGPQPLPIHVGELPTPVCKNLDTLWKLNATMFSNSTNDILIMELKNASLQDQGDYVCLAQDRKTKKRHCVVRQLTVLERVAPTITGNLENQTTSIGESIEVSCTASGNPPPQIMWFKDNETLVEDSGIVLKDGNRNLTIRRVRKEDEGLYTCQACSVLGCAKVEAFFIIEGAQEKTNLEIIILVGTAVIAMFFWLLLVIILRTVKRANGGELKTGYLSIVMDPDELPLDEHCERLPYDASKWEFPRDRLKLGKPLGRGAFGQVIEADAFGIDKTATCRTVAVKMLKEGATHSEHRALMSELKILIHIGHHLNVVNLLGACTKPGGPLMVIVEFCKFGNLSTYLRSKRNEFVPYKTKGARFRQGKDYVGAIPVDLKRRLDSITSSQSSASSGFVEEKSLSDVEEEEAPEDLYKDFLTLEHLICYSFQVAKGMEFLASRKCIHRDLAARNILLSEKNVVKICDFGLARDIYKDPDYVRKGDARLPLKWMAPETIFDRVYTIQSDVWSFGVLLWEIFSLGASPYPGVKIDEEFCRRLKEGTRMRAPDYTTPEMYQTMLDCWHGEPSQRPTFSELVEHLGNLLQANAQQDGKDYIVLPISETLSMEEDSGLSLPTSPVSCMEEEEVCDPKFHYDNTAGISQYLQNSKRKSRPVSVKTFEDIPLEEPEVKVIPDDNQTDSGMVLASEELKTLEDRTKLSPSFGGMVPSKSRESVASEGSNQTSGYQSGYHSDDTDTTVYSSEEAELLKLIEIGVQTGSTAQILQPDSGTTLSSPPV

COc1cccc(NC(=O)Nc2ccc(Oc3nc4ccccc4n4cnnc34)cc2)c1 [11d, 1-(4-([1,2,4]Triazolo[4,3-a]quinoxalin-4-yloxy)phenyl)-3-(3-methoxyphenyl)urea]
viability at 21.68 µM (MDA-MB-231 cells [1]; Homo sapiens, MDA-MB-231, 48 h, read-out: Viable (left bottom)): 20.2%
Necrosis (left top) (MDA-MB-231 cells [1]; MDA-MB-231, 21.68 µM, 48 h, untreated 0.32): 1.91 ^a %
Apoptosis, Late (right top) (MDA-MB-231 cells [1]; MDA-MB-231, 21.68 µM, 48 h, untreated 0.45): 31.49 ^a %
Apoptosis, Early (right bottom) (MDA-MB-231 cells [1]; MDA-MB-231, 21.68 µM, 48 h, untreated 3.84): 46.43 ^a %
Gene expression (fold change), Caspases-8 (caspase-8): 4.15 ± 0.48 ^a fold change
Gene expression (fold change), BAX (BAX): 5.48 ± 0.45 ^a fold change
Gene expression (fold change), BAX/Bcl-2 ratio (BAX/Bcl-2 ratio): 16.11 ± 1.01 fold change
IC50 (VEGFR-2): 62.3 ± 2.77 nM
Gene expression (fold change), Caspases-9 (caspase-9): 5.58 ± 0.40 ^a fold change
Quantitative closure (%) for scratched assay after 48 h (MDA-231 cells): 27.51%
Gene expression (fold change), Bcl-2 (Bcl-2): 0.34 ± 0.01 ^a fold change
Cell cycle distribution (%), % G2/M (MDA-MB-231 cells [2]; untreated 10.59): 3.74 ^a %
Cell cycle distribution (%), % sub-G1 (MDA-MB-231 cells [2]; untreated 19.48): 15.75%
Cell cycle distribution (%), % S (MDA-MB-231 cells [2]; untreated 24.95): 16.45 ^a %
Cell cycle distribution (%), % G1 (MDA-MB-231 cells [2]; untreated 44.98): 64.06 ^a %
